What was measured:
myeloperoxidase (MPO) [1] = test: MPO activity assay in colonic tissue homogenates, OXA model; assay type: in vivo, BALB/c mice; conditions: p<0.01, p<0.001 vs model, FIG. 10
Description: (§1) […]

myeloperoxidase (MPO) [2] = test: Immunohistochemical detection of MPO expression in colonic tissue, DSS model; assay type: in vivo, C57BL/6 mice
Description: (§2) 1.2. Medicaments and Reagents Koumine hydrochloride (C20H22N2O·HCl) (in the form of a powder) was prepared in the School of Pharmacy, Fujian Medical University (Batch No. KM201610, with a purity of 99.99% as determined by high performance liquid chromatography), stored at 4° C. in the dark, and dissolved in normal saline to a desired concentration before use. DSS was purchased from MP Biomedicals, USA and fully dissolved in distilled water to a desired concentration before use. Mesalazine enteric coated tablets were purchased from Heilongjiang Tianhong Pharmaceutical Co., Ltd. A citrate (pH=6.0) antigen retrieval solution, BSA, an anti-myeloperoxidase primary antibody, an HRP-conjugated goat anti-rabbit secondary antibody and a histochemistry kit for DAB staining were purchased from Wuhan Servicebio Technology Co., Ltd. (the same applies below).
(§3) Fifty-one healthy SPF C57BL/6 mice were randomly assigned into a blank control group (n=6), a model group (n=9) and 4 treatment groups (n=9 for each) respectively administered with low (0.67 mg/kg), medium (2 mg/kg) and high (6 mg/kg) doses of koumine, as well as mesalazine (100 mg/kg) as a positive control. A mouse model of DSS-induced bowel inflammation was established by allowing the mice in the model group and the individual treatment groups to have free access to a 2.5% DSS solution in water for 8 days and providing ad libitum access to normal water to the mice in the blank control group. From the day of induction (D0), the mice in the treatment groups received intragastric administration (0.1 mL/10 g) once a day for 9 consecutive days (D0-D8), while those in the control and model groups were given the same volumes of normal saline also by intragastric administration throughout the same period. Body weight measurements were taken and fecal occult blood tests were performed daily. One hour after the last administration (D8), the mice were sacrificed by cervical dislocation under anesthesia. Immediately after that, a bowel segment from the terminal ileum to the anus was removed from each mouse, and a length from the ileocolonic junction to the anus was measured and recorded. Colonic tissue was taken 1 cm away from the anus for histopathological examination, as well as for immunohistochemical detection for the expression of MPO. Additionally, colonic tissue was taken 1-2 cm away from the anus for MPO activity determination.

myeloperoxidase (MPO) [3] = test: Immunohistochemical detection of MPO expression in colonic tissue, OXA model; assay type: in vivo, BALB/c mice
Description: as §1

[4] = system: mice with DSS-induced bowel inflammation; test: DSS-induced bowel inflammation in C57BL/6 mice (body weight, defecation, colon length, histopathology); assay type: in vivo; conditions: for histopathological scoring: p<0.01 vs model, FIG. 4
Description: Dextran sulfate sodium (DSS) has an anticoagulant effect and, when orally administered to experimental animals, can cause hyperemia, ulcers, submucosal edema in bowel tissue and other pathological manifestations closely similar to those of clinical IBD patients. Models of DSS-induced bowel inflammation can be taken as basic models for studying the pathogenesis of UC and even IBD and evaluating the efficacy of therapeutic medicaments. In this example, therapeutic effects of koumine were evaluated in a C57BL/6 mouse model of DSS-induced bowel inflammation with the animals' body weight, defecation, pathological manifestations of colonic tissue, expression of MPO in colonic tissue and the like as indicators.
1.1. Experimental Animals Six to eight week old healthy male SPF C57BL/6 mice (weighing 18-22 g) were purchased from Shanghai SLAC Laboratory Animal Co., Ltd. (License No. SOCK (Shanghai) 2017-0005). Prior to study start, the mice were acclimated for 7 days until their body weights reached 20±2 g. They were bred under conditions of a 12/12-h light-dark cycle (light on 8:00-20:00), constant temperature (20-26° C.) and constant humidity (40-70%), with food and water provided ad libitum. Experimental operations were conducted in accordance with regulations of international and local committees on care and use of laboratory animals (the same applies below).
as §2, §3

[5] = system: mice with OXA-induced colitis; test: OXA-induced colitis in BALB/c mice (body weight, colon length, histomorphology); assay type: in vivo
From the text: OXA-induced colitis causes lesions primarily in the distal colon and resembles human IBD in terms of histological characteristics and distribution of inflammation, which can be manifested as a decrease in goblet cells.
Six to eight week old healthy male SPF BALB/c mice were purchased from Shanghai SLAC Laboratory Animal Co., Ltd. (License No. SOCK (Shanghai) 2017-0005).
The same koumine hydrochloride and mesalazine as in Example 1 were used. OXA was purchased from Sigma, USA and prepared in the form of a solution before use by fully dissolving it in absolute ethanol preheated to 35° C. When used for an enema, the solution was diluted 1-fold with normal saline to a desired concentration. Absolute ethanol was purchased from Merck, Germany. All the other reagents were the same as in Example 1.
Seventy-four BALB/c mice were randomly assigned into a blank control group (n=6), a vehicle control group (n=10), a model group (n=19) and low-dose (n=10), medium-dose (n=9) and high-dose (n=12) koumine treatment groups and another treatment group (n=8) administered with mesalazine as a positive control. A mouse model of OXA-induced UC was established by sensitizing and then giving enemas to the mice in the model group and the individual treatment groups. Specifically, each of the mice was anesthetized and sensitized by drop-wise applying a 3% solution (150 μL) of OXA in absolute ethanol to a shaved abdominal area (about 1.5 cm×1.5 cm), and received an enema using a 1% solution of OXA in 50% ethanol (100 μL) five days following the sensitization (D0). The mice in the vehicle and blank control groups were treated similarly, except for drop-wise application of 150 μL absolute ethanol and normal saline in the sensitization phase, respectively, and use of 100 μL of 50% ethanol and the same volume of normal saline in the enema phase, respectively. From the day of enema administration (D0), the mice in the treatment groups received intragastric administration (0.1 mL/10 g) once a day for 4 consecutive days (D0-D3). The daily dosage of koumine and the positive control mesalazine to the treatment groups was the same as in Example 1, and the vehicle control group was given the same volumes of 50% ethanol. Bowel inflammation evaluation of the animals was conducted in the same manner using the same indicators as in Example 1.

[6] = mesalazine 100 mg/kg intragastric

Structure (SMILES): C=CC12CN(C)C3CC14C(=Nc1ccccc14)C1CC2C3CO1 (centres unmarked) [koumine]
- enzymatic activity of MPO in colonic tissue (myeloperoxidase (MPO) [1]; koumine at the different doses (0.67, 2, 6 mg/kg) intragastric): significantly reduced enzymatic activity per unit weight
- expression of MPO in colonic tissue (myeloperoxidase (MPO) [2]; high dose 6 mg/kg intragastric, FIG. 5 E): lowered the expression of MPO to different extents
- expression of MPO in colonic tissue (myeloperoxidase (MPO) [2]; low dose 0.67 mg/kg intragastric, FIG. 5 C): did not lead to any noticeable decrease in the expression of MPO
- expression of MPO in colonic tissue (myeloperoxidase (MPO) [2]; medium dose 2 mg/kg intragastric, FIG. 5 D): lowered the expression of MPO to different extents
- expression of MPO in colonic tissue (myeloperoxidase (MPO) [3]; koumine at the different doses (0.67, 2, 6 mg/kg) intragastric, FIG. 9 C-E): suppressed expression of MPO to varying extents
- defecation and hematochezia ([4]; high dose 6 mg/kg intragastric once a day): fewer times of defecation and mitigated hematochezia
- gross damage and hyperemia of bowel mucosa ([4]; koumine 0.67, 2, 6 mg/kg intragastric once a day): ameliorate damage, hyperemia and the like
- symptom of weight loss ([4]; koumine 0.67, 2, 6 mg/kg intragastric once a day D0-D8, FIG. 1): alleviate the symptom of weight loss
- colon shortening ([4]; koumine 0.67, 2, 6 mg/kg intragastric once a day, FIG. 2): dose-dependently reduce colon shortening
- microscopic manifestations of HE-stained colonic tissue ([4]; koumine 0.67, 2, 6 mg/kg intragastric, FIG. 3 C-E): reduced inflammatory cell infiltration
- histopathological scoring ([4]; koumine high dose 6 mg/kg intragastric): significantly inhibit increases in the sore of the model group
- average body weight vs model group ([4]; low dose 0.67 mg/kg intragastric once a day, as early as D6 (seventh day of administration), p<0.05, FIG. 1): significantly higher than that of those in the model group
- colon length vs model group ([4]; low dose 0.67 mg/kg intragastric, eighth day of administration, p<0.05, FIG. 2): significantly greater than that of the model group
- defecation and hematochezia ([4]; medium dose 2 mg/kg intragastric once a day): fewer times of defecation and mitigated hematochezia
- average body weight vs model group ([4]; medium dose 2 mg/kg intragastric once a day, from D5 (sixth day of administration), p<0.05 and p<0.01, FIG. 1): significantly higher than that of those in the model group
- gross manifestations of colonic tissue (hyperemia, redness and swelling) ([5]; high dose 6 mg/kg intragastric): remarkable relief of most manifestations of colonic tissue
- microscopic manifestations of HE-stained colonic tissue ([5]; high dose 6 mg/kg intragastric, FIG. 8 E): infiltration of only a small number of inflammatory cells
- body weight loss ([5]; koumine 0.67, 2, 6 mg/kg intragastric once a day D0-D3, FIG. 6): alleviate body weight loss of mice with colitis in a dose-dependent manner
- positive effect on colon length ([5]; koumine 0.67, 2, 6 mg/kg intragastric, FIG. 7): dose-dependent
- gross manifestations of colonic tissue (hyperemia, redness and swelling) ([5]; low dose 0.67 mg/kg intragastric): appeared to not mitigate the manifestations
- microscopic manifestations of HE-stained colonic tissue ([5]; low dose 0.67 mg/kg intragastric, FIG. 8 C): slightly milder symptoms than the symptoms of the model group
- colon shortening ([5]; low dose 0.67 mg/kg intragastric, p<0.01 vs model, FIG. 7): significantly reduce their colon shortening
- gross manifestations of colonic tissue (hyperemia, redness and swelling) ([5]; medium dose 2 mg/kg intragastric): not seen with severe redness and swelling, hyperemia or other inflammatory manifestations
- microscopic manifestations of HE-stained colonic tissue ([5]; medium dose 2 mg/kg intragastric, FIG. 8 D): infiltration of only a small number of inflammatory cells

Structure (SMILES): Nc1ccc(O)c(C(=O)O)c1 [mesalazine, reference compound]
- enzymatic activity of MPO in colonic tissue (myeloperoxidase (MPO) [1]; [6]): significantly reduced enzymatic activity per unit weight
- expression of MPO in colonic tissue (myeloperoxidase (MPO) [2]; mesalazine 100 mg/kg intragastric, FIG. 5 F): lowered the expression of MPO to different extents
- expression of MPO in colonic tissue (myeloperoxidase (MPO) [3]; mesalazine 100 mg/kg intragastric, FIG. 9 F): suppressed expression of MPO to varying extents
- microscopic manifestations of HE-stained colonic tissue ([4]; mesalazine 100 mg/kg intragastric, FIG. 3 F): obvious improvements over the model group mice
- histopathological scoring [4, 6]: significantly inhibit increases in the sore of the model group
- effect of alleviating body weight loss ([5]; mesalazine 100 mg/kg intragastric once a day D0-D3, FIG. 6): comparable to that of the medium dose of koumine
- positive effect on colon length ([5]; mesalazine 100 mg/kg intragastric, FIG. 7): comparable to that of koumine at 6 mg/kg
- microscopic manifestations of HE-stained colonic tissue ([5]; mesalazine 100 mg/kg intragastric, FIG. 8 F): infiltration of only a small number of inflammatory cells

From patent US11925634B2, “Use of koumine in preparation of medicament for treatment of inflammatory bowel disease” (Fujian Medical University, priority 2019, dated 2024)
